Experimental findings from patent publication US20250382344A1, “Soluble GLP1/GIP/NPY2 Receptor Triple Agonists” (Boehringer Ingelheim International GmH, priority 2024, published 2025) are described below.

One data set concerns the target T1, hGIPR (Homo sapiens, UniProt P48546).
T1 construct: expressed in transfected cells; host or cells: CHO CRE-luciferase reporter cells
T1 sequence (P48546 22-466): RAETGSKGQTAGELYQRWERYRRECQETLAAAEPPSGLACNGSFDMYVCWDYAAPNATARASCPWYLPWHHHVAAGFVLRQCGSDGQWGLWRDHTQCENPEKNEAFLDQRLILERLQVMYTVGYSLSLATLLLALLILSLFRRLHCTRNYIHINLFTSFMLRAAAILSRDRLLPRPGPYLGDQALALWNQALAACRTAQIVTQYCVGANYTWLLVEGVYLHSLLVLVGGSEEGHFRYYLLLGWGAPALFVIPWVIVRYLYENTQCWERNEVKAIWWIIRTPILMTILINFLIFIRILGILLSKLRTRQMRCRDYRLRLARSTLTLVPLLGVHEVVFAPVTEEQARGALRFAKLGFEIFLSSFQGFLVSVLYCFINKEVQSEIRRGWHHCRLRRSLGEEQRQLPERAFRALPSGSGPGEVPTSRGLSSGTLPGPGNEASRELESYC
Description: hGIPR CreLuc assay in 0.5% and 100% plasma (CHO CRE-luciferase reporter cells). The data set is classed as cell-based. (Reporter assays use an easily measured gene product as a stand-in for the process of interest.)

Data set [1] is described as follows: Solubility in 0.1 M phosphate buffer at pH 7. The data set is classed as physicochemical. Conditions: 0.1 M phosphate buffer at pH 7, 10 mg/mL final peptide concentration, shaking 2 hours at room temperature, peptides as TFA-salts; measured sample pH 6.5-7.0.
[2] abbreviates: 0.5% human plasma, read-out: hGIPR 0.5% hP.

Like-named read-outs stand apart in the source and are kept apart here.

As a reminder, the solubility is the concentration that dissolves in the medium under given conditions. Take `CC[C@H](C)[C@H](NC(=O)[C@H](CC(C)C)NC(=O)[C@H](Cc1c[nH]cn1)NC(=O)[C@H](CCCNC(=N)N)NC(=O)[C@@H](NC(=O)[C@H](Cc1ccccc1)NC(=O)[C@H](C)NC(=O)C(C)(C)NC(=O)[C@H](CCC(N)=O)NC(=O)[C@H](C)NC(=O)[C@H](CCC(N)=O)NC(=O)[C@H](CCCCN)NC(=O)[C@H](CCC(=O)O)NC(=O)[C@H](CC(C)C)NC(=O)C(C)(C)NC(=O)[C@@H](NC(=O)[C@H](CO)NC(=O)[C@H](Cc1ccc(O)cc1)NC(=O)[C@H](CC(=O)O)NC(=O)[C@H](CO)NC(=O)[C@@H](NC(=O)[C@H](Cc1ccccc1)NC(=O)[C@@H](NC(=O)CNC(=O)[C@H](CCC(=O)O)NC(=O)C(C)(C)NC(=O)[C@@H](N)Cc1ccc(O)cc1)[C@@H](C)O)[C@@H](C)O)[C@@H](C)CC)C(C)C)C(=O)N[C@@H](CC(N)=O)C(=O)N[C@@H](CCCCNC(=O)CC[C@H](NC(=O)[C@@H](N)CCCCNC(=O)CC[C@H](NC(=O)CC[C@H](NC(=O)CC[C@H](NC(=O)CC[C@H](NC(=O)CC[C@H](NC(=O)CCCCCCCCCCCCCCCCCCC(=O)O)C(=O)O)C(=O)O)C(=O)O)C(=O)O)C(=O)O)C(=O)O)C(=O)NC(C)(C)C(=O)N[C@H](C(=O)N[C@@H](CCCNC(=N)N)C(=O)N[C@@H](CCC(N)=O)C(=O)N[C@@H](CCCNC(=N)N)C(=O)N[C@@H](Cc1ccc(O)cc1)C(N)=O)[C@@H](C)O` [Compound 94, Y-Aib-E-G-T-F-T-S-D-Y-S-I-Aib-L-E-K-Q-A-Q-Aib-A-F-V-R-H-L-I-N-K(1,3)-Aib-T-R-Q-R-Y-NH2.C20DA-gGlu-gGlu-gGlu-gGlu-gGlu-eLys-gGlu(1,2)]: on hGIPR (setting [2]), the EC50 stood at 0.3 nM. In data set [1], the solubility at 2 h was 9000 µg/mL.
With `CC[C@H](C)[C@H](NC(=O)[C@H](CC(C)C)NC(=O)[C@H](Cc1c[nH]cn1)NC(=O)[C@H](CCCNC(=N)N)NC(=O)[C@@H](NC(=O)[C@H](Cc1ccccc1)NC(=O)[C@H](C)NC(=O)C(C)(C)NC(=O)[C@H](CCC(N)=O)NC(=O)[C@H](C)NC(=O)[C@H](CCC(N)=O)NC(=O)[C@H](C)NC(=O)[C@H](CCC(=O)O)NC(=O)[C@H](CC(C)C)NC(=O)C(C)(C)NC(=O)[C@@H](NC(=O)[C@H](CO)NC(=O)[C@H](Cc1ccc(O)cc1)NC(=O)[C@H](CC(=O)O)NC(=O)[C@H](CO)NC(=O)[C@@H](NC(=O)[C@H](Cc1ccccc1)NC(=O)[C@@H](NC(=O)CNC(=O)[C@H](CCC(=O)O)NC(=O)C(C)(C)NC(=O)[C@@H](N)Cc1ccc(O)cc1)[C@@H](C)O)[C@@H](C)O)[C@@H](C)CC)C(C)C)C(=O)N[C@@H](CC(N)=O)C(=O)N[C@@H](CCCCNC(=O)[C@@H](N)CCCCNC(=O)CC[C@H](NC(=O)CC[C@H](NC(=O)CC[C@H](NC(=O)CC[C@H](NC(=O)CC[C@H](NC(=O)CC[C@H](NC(=O)CCCCCCCCCCCCCCCCC(=O)O)C(=O)O)C(=O)O)C(=O)O)C(=O)O)C(=O)O)C(=O)O)C(=O)NC(C)(C)C(=O)N[C@H](C(=O)N[C@@H](CCCNC(=N)N)C(=O)N[C@@H](CCC(N)=O)C(=O)N[C@@H](CCCNC(=N)N)C(=O)N[C@@H](Cc1ccc(O)cc1)C(N)=O)[C@@H](C)O` [Compound 123, Y-Aib-E-G-T-F-T-S-D-Y-S-I-Aib-L-E-A-Q-A-Q-Aib-A-F-V-R-H-L-I-N-K(1,3)-Aib-T-R-Q-R-Y-NH2.C18DA-gGlu-gGlu-gGlu-gGlu-gGlu-gGlu-eLys(1,2)], the EC50 at hGIPR (setting [2]) was 0.3 nM. The solubility at 2 h in data set [1] was found to be 4300 µg/mL.
For the compound `CC[C@H](C)[C@H](NC(=O)[C@H](CC(C)C)NC(=O)[C@H](Cc1c[nH]cn1)NC(=O)[C@H](CCCNC(=N)N)NC(=O)[C@@H](NC(=O)[C@H](Cc1ccccc1)NC(=O)[C@H](C)NC(=O)C(C)(C)NC(=O)[C@H](CCC(N)=O)NC(=O)[C@H](C)NC(=O)[C@H](CCC(N)=O)NC(=O)[C@H](CCCCN)NC(=O)[C@H](CCC(=O)O)NC(=O)[C@H](CC(C)C)NC(=O)C(C)(C)NC(=O)[C@@H](NC(=O)[C@H](CO)NC(=O)[C@H](Cc1ccc(O)cc1)NC(=O)[C@H](CC(=O)O)NC(=O)[C@H](CO)NC(=O)[C@@H](NC(=O)[C@H](Cc1ccccc1)NC(=O)[C@@H](NC(=O)CNC(=O)[C@H](CCC(=O)O)NC(=O)C(C)(C)NC(=O)[C@@H](N)Cc1ccc(O)cc1)[C@@H](C)O)[C@@H](C)O)[C@@H](C)CC)C(C)C)C(=O)N[C@@H](CC(N)=O)C(=O)N[C@@H](CCCCNC(=O)CC[C@H](NC(=O)CC[C@H](NC(=O)CC[C@H](NC(=O)CC[C@H](NC(=O)CC[C@H](NC(=O)CC[C@H](NC(=O)[C@H]1CC[C@H](CNC(=O)CCCCCCCCCCCCCCCCCCC(=O)O)CC1)C(=O)O)C(=O)O)C(=O)O)C(=O)O)C(=O)O)C(=O)O)C(=O)NC(C)(C)C(=O)N[C@H](C(=O)N[C@@H](CCCNC(=N)N)C(=O)N[C@@H](CCC(N)=O)C(=O)N[C@@H](CCCNC(=N)N)C(=O)N[C@@H](Cc1ccc(O)cc1)C(N)=O)[C@@H](C)O` [Compound 133, Y-Aib-E-G-T-F-T-S-D-Y-S-I-Aib-L-E-K-Q-A-Q-Aib-A-F-V-R-H-L-I-N-K(1,3)-Aib-T-R-Q-R-Y-NH2.C20DA-TRX-gGlu-gGlu-gGlu-gGlu-gGlu-gGlu(1,2)], the EC50 on hGIPR (setting [2]) came to 0.3 nM; at hGIPR (100% human plasma, read-out: hGIPR 100% hP) it was 3.4 nM. The solubility at 2 h in data set [1] worked out at 4200 µg/mL.
`CC[C@H](C)[C@H](NC(=O)[C@H](CC(C)C)NC(=O)[C@H](Cc1c[nH]cn1)NC(=O)[C@H](CCCNC(=N)N)NC(=O)[C@@H](NC(=O)[C@H](Cc1ccccc1)NC(=O)[C@H](C)NC(=O)C(C)(C)NC(=O)[C@H](CCC(N)=O)NC(=O)[C@H](C)NC(=O)[C@H](CCC(N)=O)NC(=O)[C@H](CCCCN)NC(=O)[C@H](CCC(=O)O)NC(=O)[C@H](CC(C)C)NC(=O)C(C)(C)NC(=O)[C@@H](NC(=O)[C@H](CO)NC(=O)[C@H](CC(C)C)NC(=O)[C@H](CC(=O)O)NC(=O)[C@H](CO)NC(=O)[C@@H](NC(=O)[C@H](Cc1ccccc1)NC(=O)[C@@H](NC(=O)CNC(=O)[C@H](CCC(=O)O)NC(=O)C(C)(C)NC(=O)[C@@H](N)Cc1ccc(O)cc1)[C@@H](C)O)[C@@H](C)O)[C@@H](C)CC)C(C)C)C(=O)N[C@@H](CC(N)=O)C(=O)N[C@@H](CCCCNC(=O)[C@@H](N)CCCCNC(=O)CC[C@H](NC(=O)CC[C@H](NC(=O)CC[C@H](NC(=O)CC[C@H](NC(=O)CC[C@H](NC(=O)CC[C@H](NC(=O)CC[C@H](NC(=O)CCCCCCCCCCCCCCCCCCC(=O)O)C(=O)O)C(=O)O)C(=O)O)C(=O)O)C(=O)O)C(=O)O)C(=O)O)C(=O)NC(C)(C)C(=O)N[C@H](C(=O)N[C@@H](CCCNC(=N)N)C(=O)N[C@@H](CCC(N)=O)C(=O)N[C@@H](CCCNC(=N)N)C(=O)N[C@@H](Cc1ccc(O)cc1)C(N)=O)[C@@H](C)O` [Compound 135, Y-Aib-E-G-T-F-T-S-D-L-S-I-Aib-L-E-K-Q-A-Q-Aib-A-F-V-R-H-L-I-N-K(1,3)-Aib-T-R-Q-R-Y-NH2.C20DA-gGlu-gGlu-gGlu-gGlu-gGlu-gGlu-gGlu-eLys(1,2)] came in with an EC50 on hGIPR (hGIPR 0.5% hP (nM), 0.5% human plasma) of 0.5 nM. In addition, in data set [1], the solubility at 2 h is 9200 µg/mL.
